SMILES strings stand for the structures. The source made the active and inactive calls. The calls are words filed in the database; no cut-off is given here.

The target of series [1] is Amyloid-beta precursor protein (Homo sapiens) (UniProt P05067). Description: Inhibition of amyloid beta (1 to 42) (unknown origin) aggregation at 5 uM by Thioflavin-T fluorescence assay. To be noted: TDE = time-dependent effect.
Series [2] has the same target. Description: Inhibition of HFIP pretreated amyloid beta (1 to 42) (unknown origin) aggregation assessed as time for nucleation phase of aggregation at 5 uM by Thioflavin-T fluorescence assay (reference value: 4 to 5 hrs).
The nature of series [3]: Drug level in pH 7.4 PBS at 50 uM measured after 4 hrs by HPLC analysis. It counts as physicochemical. Particulars: buffer, pH 7.4, 4 h.
Series [4] can be described thus: Drug level in pH 7.4 PBS at 50 uM measured after 2 hrs by HPLC analysis. It counts as physicochemical. To be noted: buffer, pH 7.4, 2 h.
Series [5] in a line: Drug level in pH 7.4 PBS at 50 uM measured after 24 hrs by HPLC analysis. It counts as physicochemical. To be noted: buffer, pH 7.4, 24 h.
Series [6] is described as follows: Drug level in pH 7.4 PBS treated with apomorphine at 50 uM up to 8 hrs by UV-Visible spectroscopic analysis. It counts as physicochemical. To be noted: buffer, pH 7.4, 8 h.
Series [7] concerns the target Amyloid-beta precursor protein (Homo sapiens) (UniProt P05067). Description: Binding affinity to amyloid beta (1 to 42) (unknown origin) assessed as retention time for amyloid beta (1 to 42)-compound adduct formation at 250 uM after 1 hr by LC/Q Tof-MS analysis.
A short description of series [8]: Drug level in pH 7.4 PBS treated with apomorphine at 8 uM measured immediately by HPLC analysis. The format is physicochemical. To be noted: buffer, pH 7.4, 8 µM.
Series [9] is described as follows: Drug level in pH 7.4 PBS at 50 uM measured after 8 hrs by HPLC analysis. It counts as physicochemical. To be noted: buffer, pH 7.4, 8 h.
The target of series [10] is Amyloid-beta precursor protein (Homo sapiens) (UniProt P05067). The experiment in a line: Inhibition of amyloid beta (1 to 42) (unknown origin) aggregation at 5 uM after 48 hrs by Thioflavin-T fluorescence assay relative to control.
Series [11] in a line: Drug level in pH 7.4 PBS at 50 uM measured after 0 hrs by HPLC analysis. Particulars: buffer, pH 7.4, 0 h. The format is physicochemical.
The target in series [12] is Amyloid-beta precursor protein (Homo sapiens) (UniProt P05067). Description: Inhibition of amyloid beta (1 to 42) (unknown origin)-mediated toxicity in human SH-SY5Y cells at 500 uM preincubated with amyloid beta (1 to 42) for 30 mins followed by addition to cells measured after 24 hrs by MTT assay. It counts as cell-based. In general terms: Formazan colour is commonly taken as a measure of viable cells.

The nature of series [13]: Drug level in pH 7.4 PBS at 50 uM measured after 1 hr by HPLC analysis. To be noted: buffer, pH 7.4, 1 h. The format is physicochemical.
Series [14] can be described thus: Drug level in pH 7.4 PBS at 50 uM measured after 48 hrs by HPLC analysis. The format is physicochemical. Particulars: buffer, pH 7.4, 48 h.
The nature of series [15]: Drug level in pH 7.4 PBS treated with apomorphine at 50 uM measured after 8 hrs by HPLC analysis. The format is physicochemical. Particulars: buffer, pH 7.4, 8 h.
For series [16], the target named is Amyloid-beta precursor protein (Homo sapiens) (UniProt P05067). Description: Binding affinity to amyloid beta (1 to 42) (unknown origin) assessed as retention time for amyloid beta (1 to 42) (Lys28)-compound adduct at 250 uM after 1 hr by LC/Q Tof-MS analysis.
Series [17] is described as follows: Drug metabolism in pH 7.4 PBS assessed as auto-oxidization by measuring 6-methyl-5,6-dihydro-4H-dibenzo[de,g]quinoline-10,11-dione level at 50 uM measured after 24 hrs by HPLC analysis. The format is physicochemical. Particulars: buffer, pH 7.4, 24 h.
Series [18] is described as follows: Drug metabolism in pH 7.4 PBS assessed as auto-oxidization by measuring 6-methyl-5,6-dihydro-4H-dibenzo[de,g]quinoline-10,11-dione level at 50 uM measured after 0 hrs by HPLC analysis. It counts as physicochemical. Particulars: buffer, pH 7.4, 0 h.
Series [19] has as its target Amyloid-beta precursor protein (Homo sapiens) (UniProt P05067). The experiment in a line: Inhibition of amyloid beta (1 to 42) (unknown origin) aggregation by Thioflavin-T fluorescence assay.
For series [20] the target is unchanged. Description: Inhibition of amyloid beta (1 to 42) (unknown origin) aggregation at 0.25 to 50 uM after 48 hrs by uranyl acetate staining based transmission electron microscopic method.
For series [21] the target is unchanged. Description: Binding affinity to amyloid beta (1 to 42) (unknown origin) assessed as retention time for amyloid beta (1 to 42) - 6-methyl-5,6-dihydro-4H-dibenzo[de,g]quinoline-10,11-dione adduct at 250 uM after 1 hr by LC/Q Tof-MS analysis.
A short description of series [22]: Drug metabolism in pH 7.4 PBS assessed as auto-oxidization by measuring 6-methyl-5,6-dihydro-4H-dibenzo[de,g]quinoline-10,11-dione level at 50 uM measured after 4 hrs by HPLC analysis. It counts as physicochemical. Particulars: buffer, pH 7.4, 4 h.
Series [23] in a line: Drug metabolism in pH 7.4 PBS assessed as auto-oxidization by measuring 6-methyl-5,6-dihydro-4H-dibenzo[de,g]quinoline-10,11-dione level at 50 uM measured after 2 hrs by HPLC analysis. It counts as physicochemical. To be noted: buffer, pH 7.4, 2 h.
Series [24] addresses Amyloid-beta precursor protein (Homo sapiens) (UniProt P05067). Description: Binding affinity to amyloid beta (9 to 35) E22P M35ox mutant (unknown origin) oxidized at M35 residue assessed as E22P M35ox(Lys16/Lys28)-compound adduct formation at 250 uM after 1 hr by LC/Q Tof-MS analysis.
The target is the same in series [25]. The experiment in a line: Binding affinity to amyloid beta (1 to 42) (unknown origin) assessed as retention time for amyloid beta (1 to 42) (Lys16)-compound adduct at 250 uM after 1 hr by LC/Q Tof-MS analysis.
Series [26] has the same target. The experiment in a line: Inhibition of amyloid beta (1 to 42) (unknown origin) aggregation at 5 uM in presence of reductant TCEP by Thioflavin-T fluorescence assay.
A short description of series [27]: Drug metabolism in pH 7.4 PBS assessed as auto-oxidization by measuring 6-methyl-5,6-dihydro-4H-dibenzo[de,g]quinoline-10,11-dione level at 50 uM measured after 8 hrs by HPLC analysis. To be noted: buffer, pH 7.4, 8 h. The format is physicochemical.
Series [28] is described as follows: Drug metabolism in pH 7.4 PBS assessed as auto-oxidization by measuring 6-methyl-5,6-dihydro-4H-dibenzo[de,g]quinoline-10,11-dione level at 50 uM measured after 1 hr by HPLC analysis. It counts as physicochemical. Particulars: buffer, pH 7.4, 1 h.
Series [29] can be described thus: Drug level in pH 7.4 PBS treated with apomorphine at 8 to 50 uM measured up to 24 hrs by HPLC analysis. It counts as physicochemical. Particulars: buffer, pH 7.4, 24 h.

Sequence of Amyloid-beta precursor protein (Homo sapiens) (P05067 whole entry): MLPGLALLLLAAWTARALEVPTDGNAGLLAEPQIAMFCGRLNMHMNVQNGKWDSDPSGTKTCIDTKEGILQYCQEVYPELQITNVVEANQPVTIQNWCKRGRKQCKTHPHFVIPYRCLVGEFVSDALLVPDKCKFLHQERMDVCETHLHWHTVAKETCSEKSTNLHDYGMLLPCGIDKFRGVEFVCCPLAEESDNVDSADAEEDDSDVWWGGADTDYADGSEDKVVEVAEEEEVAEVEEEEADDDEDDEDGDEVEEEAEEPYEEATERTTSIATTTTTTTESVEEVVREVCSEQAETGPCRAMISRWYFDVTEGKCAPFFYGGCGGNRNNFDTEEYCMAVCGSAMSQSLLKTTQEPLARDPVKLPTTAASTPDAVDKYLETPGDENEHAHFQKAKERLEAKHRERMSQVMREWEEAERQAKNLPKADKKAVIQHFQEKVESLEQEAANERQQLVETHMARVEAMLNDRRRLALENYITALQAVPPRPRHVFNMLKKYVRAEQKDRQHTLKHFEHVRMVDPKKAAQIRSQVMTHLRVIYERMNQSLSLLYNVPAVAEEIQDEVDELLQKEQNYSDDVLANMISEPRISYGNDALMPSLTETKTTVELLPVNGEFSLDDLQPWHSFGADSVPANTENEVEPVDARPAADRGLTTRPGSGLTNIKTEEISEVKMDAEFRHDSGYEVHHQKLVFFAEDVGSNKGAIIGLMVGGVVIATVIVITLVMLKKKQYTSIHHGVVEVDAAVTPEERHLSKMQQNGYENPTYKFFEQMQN

The term inhibition denotes how much of the control response was suppressed. Consider `CN1CCc2cccc3c4c(cc1c23)C=CC(=O)C4=O`, for which the inhibition entry is “Tde” in series [1] and above 50% in series [10]. The TIME in series [2] lay within 6 to 7 h. The Drug uptake in series [3] stood at 24 µM; in series [4], 22 µM; in [5], 19 µM; in [9] it was 24 µM; in series [11] it was 31 µM; in series [13] it was 24 µM. The compound further yielded a Drug uptake in [14] of 15 µM. In addition, the Drug metabolism entry in series [6], in series [8] and in [15] was “Metabolite_Detected” each time. In series [7], the result was inactive. For the same compound, the inhibition result in series [12] is “inactive”.
Consider `CN1CCc2cccc3c2[C@H]1Cc1ccc(O)c(O)c1-3` [APOMORPHINE], for which the inhibition entry was “Tde” in series [1], “Dose-dependent effect” in [19] and above 50% in series [10]. Also, the TIME in [2] lay within 6 to 7 h. The Retention time was 6.9 min in [16] and 6.4 min in [25]. The Drug metabolism is 25 µM in series [17]; 8 µM in [18]; 47 µM in [22]; 32 µM in series [23]; 50 µM in series [27]; 23 µM in series [28]. For the same compound, the inhibition entry in series [20] was “Active”. For the same compound, the result in series [21] and in series [24] was Active. The inhibition result in series [12] and in [26] was “inactive” throughout.
Take `CN1CCc2cccc3c2C1=CC(=O)C3=O`: the Drug metabolism result in series [29] is “Metabolite_Detected”.
On the same count and under the same terms, with `CNCCc1cccc2c3c(ccc12)C=CC(=O)C3=O` the entry was “Metabolite_Detected”.

The record behind these values is ChEMBL document CHEMBL4219068 (Bioorg Med Chem, 2018).
